# From PubChem BioAssay (NCI)
#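 Where inhibition never reached the appropriate level, the endpoint shown equals the highest concentration tested. Otherwise, values were interpolated linearly from a five-concentration, 48-hour dose response in 96-well plates. GI50 = concentration required for 50% inhibition of growth. Definition used: TGI = concentration required for complete inhibition of growth.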
# Columns and labels:
# Assay in all cases: NCI-60 cell line screen, 48 h
# SF-539 CNS = system: SF-539 CNS
# OVCAR-4 ovarian = system: OVCAR-4 ovarian
# SF-268 CNS = system: SF-268 CNS
# UO-31 renal = system: UO-31 renal
# OVCAR-8 ovarian = system: OVCAR-8 ovarian
# KM12 colon = system: KM12 colon
# SK-MEL-2 melanoma = system: SK-MEL-2 melanoma
# MOLT-4 leukemia = system: MOLT-4 leukemia
# HCT-15 colon = system: HCT-15 colon
# TK-10 renal = system: TK-10 renal
SMILES,TGI (SF-539 CNS),TGI (OVCAR-4 ovarian),TGI (SF-268 CNS),TGI (UO-31 renal),TGI (OVCAR-8 ovarian),TGI (KM12 colon),TGI (SK-MEL-2 melanoma),TGI (MOLT-4 leukemia),TGI (HCT-15 colon),TGI (TK-10 renal),GI50 (SF-539 CNS),GI50 (OVCAR-4 ovarian),GI50 (SF-268 CNS),GI50 (TK-10 renal),GI50 (UO-31 renal),GI50 (KM12 colon),GI50 (SK-MEL-2 melanoma),GI50 (MOLT-4 leukemia),GI50 (HCT-15 colon)
O=C(O)c1ccc(N/C(=C(/C(Cl)=C(Cl)Cl)[N+](=O)[O-])n2nnc3ccccc32)cc1,> 100 µM,> 100 µM,> 100 µM,> 100 µM,> 100 µM,> 100 µM,> 100 µM,> 100 µM,> 100 µM,,,,,,,,,,
c1cc2c(cc1C1=NCCN1)c1cc(C3=NCCN3)ccc1n2CC1CCCCC1,19.2 µM,> 100 µM,22.2 µM,> 100 µM,> 100 µM,> 100 µM,34.6 µM,34.8 µM,> 100 µM,> 100 µM,,,,,,,,,
O=C(N/N=C\c1ccc([N+](=O)[O-])s1)c1ccncc1,43.3 µM,30.2 µM,55 µM,> 38.5 µM,49.2 µM,26.8 µM,68.5 µM,> 63.2 µM,> 44 µM,> 51.7 µM,,,,,,,,,
NN/C(=N\S(=O)(=O)c1ccc(S(=O)(=O)c2ccccc2)s1)Nc1ccc(Cl)cc1,> 100 µM,> 100 µM,,> 100 µM,> 100 µM,49.3 µM,53.8 µM,41.2 µM,> 100 µM,> 100 µM,,,,,,,,,
CCOC(=O)CCC(NC(=O)c1ccc(Nc2nc3ccccc3nc2C(=O)OCC)cc1)C(=O)OCC (stereo unspecified),5.62 µM,3.91 µM,43.7 µM,12.2 µM,7.97 µM,> 100 µM,24.4 µM,> 100 µM,> 100 µM,6.43 µM,,,,,,,,,
O=[N+]([O-])C(C=C(n1nnc2ccccc21)n1nnc2ccccc21)=C(n1nnc2ccccc21)n1nnc2ccccc21,> 100 µM,,> 100 µM,> 100 µM,> 100 µM,> 100 µM,,93.4 µM,> 100 µM,> 100 µM,,,,,,,,,
O=C1N(c2ccccc2)C(=S)/C(=C/c2ccc(Cl)cc2)N1c1ccc(Cl)cc1,41.2 µM,> 100 µM,> 100 µM,> 100 µM,> 100 µM,> 100 µM,> 100 µM,13.5 µM,> 100 µM,89.8 µM,,,,,,,,,
C=C(C)[C@@H]1CC[C@]2(C(=O)NC(C)=O)CC[C@]3(C)[C@H](CC[C@@H]4[C@@]5(C)CCCNC(C)(C)[C@@H]5CC[C@]43C)[C@@H]12,2.84 µM,3.23 µM,3.25 µM,2.69 µM,,2.9 µM,3.73 µM,3.86 µM,2.97 µM,3.38 µM,1.51 µM,1.51 µM,1.69 µM,1.79 µM,1.4 µM,1.51 µM,1.92 µM,1.4 µM,1.52 µM
O=c1cc(N2CCCC2)[nH]c(=O)n1-c1ccc(Cl)cc1,> 100 µM,> 100 µM,> 100 µM,,> 100 µM,> 100 µM,> 100 µM,> 100 µM,> 100 µM,> 100 µM,,,,,,,,,
Cc1cc2ccc(N)nc2[nH]c1=O,> 100 µM,,> 100 µM,> 100 µM,> 100 µM,> 100 µM,> 100 µM,,> 100 µM,> 100 µM,,,,,,,,,
Cc1c(O)c(=O)ccn1CCc1ccc(O)cc1,62.5 µM,76.2 µM,33.3 µM,,> 100 µM,> 100 µM,,> 100 µM,> 100 µM,> 100 µM,,,,,,,,,
COc1ccc(-n2cnc3c(NC(Cc4ccccc4)C(=O)O)ncnc32)cc1 (stereo unspecified),,> 100 µM,> 100 µM,> 100 µM,> 100 µM,> 100 µM,> 100 µM,,> 100 µM,> 100 µM,,,,,,,,,
CCOC(=O)c1cc(Br)c(-c2cc(C)co2)[nH]1,> 100 µM,> 100 µM,> 100 µM,> 100 µM,> 100 µM,> 100 µM,> 100 µM,> 100 µM,> 100 µM,,,,,,,,,,
CC(=O)NC1C(OCc2ccccc2)OC(CO)C(O)C1OCC(=O)N[C@@H](C)C(=O)N[C@H](CCC(=O)NCCCNc1ccc([N+](=O)[O-])c2[nH]c3ccccc3c(=O)c12)C(N)=O (stereo partly specified),> 100 µM,94.8 µM,,> 100 µM,> 100 µM,> 100 µM,> 100 µM,,> 100 µM,> 100 µM,,,,,,,,,
C=C(C)[C@@H]1CC[C@]2(CO)CC[C@]3(C)[C@H](CC[C@@H]4[C@@]5(C)CC[C@H](NCO)C(C)(C)[C@@H]5CC[C@]43C)[C@@H]12,1.52 µM,1.59 µM,1.92 µM,1.35 µM,,1.63 µM,1.83 µM,2.56 µM,,1.78 µM,0.826 µM,0.827 µM,0.944 µM,0.965 µM,0.703 µM,0.886 µM,0.961 µM,1 µM,
O=C1CC(c2ccccc2)S(=O)c2ccccc2N1 (stereo unspecified),,> 100 µM,> 100 µM,> 100 µM,> 100 µM,> 100 µM,,> 100 µM,> 100 µM,> 100 µM,,,,,,,,,
CCN(CC)CCO[Si](OCCN(CC)CC)(OCCN(CC)CC)OCCN(CC)CC,> 100 µM,> 100 µM,,> 100 µM,> 100 µM,> 100 µM,> 100 µM,,> 100 µM,> 100 µM,,,,,,,,,
CCNC(=S)N/N=C(\C)c1cccc(C)n1,45.1 µM,,17.2 µM,> 100 µM,> 100 µM,> 100 µM,> 100 µM,> 100 µM,> 100 µM,> 100 µM,,,,,,,,,
O=C(CCC1CCCCN1)Nc1ccc2c(c1)C(=O)c1ccc(NC(=O)CCN3CCCCC3)cc1C2=O (stereo unspecified),8.46 µM,5.38 µM,25.4 µM,2.68 µM,9.73 µM,6.99 µM,,,,9.42 µM,,,,,,,,,
CCCCC[C@H]1CCCCCCCCCC(=O)OC2C(O[C@@H]3OC(C)[C@H](OC(=O)[C@@H](C)CC)C(O[C@@H]4OC(C)[C@H](O)C(O)[C@@H]4O)[C@@H]3OC(=O)[C@H](C)CC)[C@H](OC3C(O)[C@@H](O)C(C)O[C@H]3O1)OC(CO)[C@H]2O (stereo partly specified),,36.3 µM,33.4 µM,30.8 µM,35.5 µM,35.8 µM,30.5 µM,35.4 µM,30.6 µM,34.3 µM,,,,,,,,,
